In PubChem BioAssay (NCI):
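Cells were grown in 96-well plates and exposed to each compound for 48 hours at five concentrations; endpoints were interpolated linearly between bracketing concentrations, or set to the highest concentration if not reached. Here, GI50 denotes the concentration required for 50% inhibition of growth. TGI: total growth inhibition.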

Assays:
Experiment in all cases: DTP human tumour cell line panel, 48 h
[1] = tested on: T-47D breast
[2] = tested on: OVCAR-8 ovarian
[3] = tested on: MDA-MB-231 breast
[4] = tested on: 786-0 renal
[5] = tested on: RPMI-8226 leukemia
[6] = tested on: BT-549 breast
[7] = tested on: MALME-3M melanoma
[8] = tested on: A549 NSCLC
[9] = tested on: SN12C renal
[10] = tested on: NCI-H226 lung
[11] = tested on: SK-MEL-2 melanoma
[12] = tested on: NCI/ADR-RES ovarian
[13] = tested on: EKVX NSCLC
[14] = tested on: SF-539 CNS
[15] = tested on: OVCAR-3 ovarian
[16] = tested on: HCC-2998 colon
[17] = tested on: PC-3 prostate
[18] = tested on: IGROV1 ovarian
[19] = tested on: MDA-MB-435
[20] = tested on: SF-295 CNS
[21] = tested on: MOLT-4 leukemia
[22] = tested on: HCT-116 colon
[23] = tested on: UACC-257 melanoma
[24] = tested on: MCF7 breast
[25] = tested on: HOP-92 NSCLC
[26] = tested on: CAKI-1 renal
[27] = tested on: UACC-62 melanoma
[28] = tested on: RXF 393 renal
[29] = tested on: U251 CNS
[30] = tested on: HT29 colon
[31] = tested on: SK-MEL-5 melanoma
[32] = tested on: CCRF-CEM leukemia
[33] = tested on: KM12 colon
[34] = tested on: SNB-75 CNS
[35] = tested on: TK-10 renal
[36] = tested on: HL-60(TB) leukemia
[37] = tested on: NCI-H522 lung
[38] = tested on: HCT-15 colon
[39] = tested on: SW-620 colon
[40] = tested on: SNB-19 CNS
[41] = tested on: UO-31 renal
[42] = tested on: NCI-H460 lung
[43] = tested on: HS 578T breast
[44] = tested on: SF-268 CNS
[45] = tested on: NCI-H23 lung
[46] = tested on: DU-145 prostate
[47] = tested on: ACHN renal
[48] = tested on: OVCAR-4 ovarian
[49] = tested on: K-562 leukemia
[50] = tested on: SK-MEL-28 melanoma
[51] = tested on: OVCAR-5 ovarian
[52] = tested on: LOX IMVI melanoma
[53] = tested on: COLO 205 colon
[54] = tested on: SK-OV-3 ovarian
[55] = tested on: HOP-62 NSCLC

## CC1COCCN1CC#CCOC(=O)c1cc2ccccc2oc1=O (stereo not given)
[1]
  GI50: > 100 µM
  TGI: > 100 µM
[2]
  GI50: > 100 µM
  TGI: > 100 µM
[3]
  GI50: > 100 µM
  TGI: > 100 µM
[4]
  GI50: > 100 µM
  TGI: > 100 µM
[5]
  GI50: > 100 µM
  TGI: > 100 µM
[6]
  GI50: > 100 µM
  TGI: > 100 µM
[7]
  GI50: > 100 µM
  TGI: > 100 µM
[8]
  GI50: > 100 µM
  TGI: > 100 µM
[9]
  GI50: > 100 µM
  TGI: > 100 µM
[10]
  GI50: > 100 µM
  TGI: > 100 µM
[11]
  GI50: > 100 µM
  TGI: > 100 µM
[12]
  GI50: > 100 µM
  TGI: > 100 µM
[13]
  GI50: > 100 µM
  TGI: > 100 µM
[14]
  GI50: > 100 µM
  TGI: > 100 µM
[15]
  GI50: > 100 µM
  TGI: > 100 µM
[16]
  GI50: > 100 µM
  TGI: > 100 µM
[17]
  GI50: > 100 µM
  TGI: > 100 µM
[18]
  GI50: > 100 µM
  TGI: > 100 µM
[19]
  GI50: > 100 µM
  TGI: > 100 µM
[20]
  GI50: > 100 µM
  TGI: > 100 µM
[21]
  GI50: > 100 µM
  TGI: > 100 µM
[22]
  GI50: > 100 µM
  TGI: > 100 µM
[23]
  GI50: > 100 µM
  TGI: > 100 µM
[24]
  GI50: > 100 µM
  TGI: > 100 µM
[25]
  GI50: 72.5 µM
  TGI: > 100 µM
[26]
  GI50: > 100 µM
  TGI: > 100 µM
[27]
  GI50: > 100 µM
  TGI: > 100 µM
[28]
  GI50: > 100 µM
  TGI: > 100 µM
[29]
  GI50: > 100 µM
  TGI: > 100 µM
[30]
  GI50: > 100 µM
  TGI: > 100 µM
[31]
  GI50: > 100 µM
  TGI: > 100 µM
[32]
  GI50: > 100 µM
  TGI: > 100 µM
[33]
  GI50: > 100 µM
  TGI: > 100 µM
[34]
  GI50: 83.4 µM
  TGI: > 100 µM
[35]
  GI50: > 100 µM
  TGI: > 100 µM
[36]
  GI50: > 100 µM
  TGI: > 100 µM
[37]
  GI50: > 100 µM
  TGI: > 100 µM
[38]
  GI50: > 100 µM
  TGI: > 100 µM
[39]
  GI50: > 100 µM
  TGI: > 100 µM
[40]
  GI50: > 100 µM
  TGI: > 100 µM
[41]
  GI50: > 100 µM
  TGI: > 100 µM
[42]
  GI50: > 100 µM
  TGI: > 100 µM
[43]
  GI50: 62.4 µM
  TGI: > 100 µM
[44]
  GI50: > 100 µM
  TGI: > 100 µM
[45]
  GI50: > 100 µM
  TGI: > 100 µM
[46]
  GI50: > 100 µM
  TGI: > 100 µM
[47]
  GI50: > 100 µM
  TGI: > 100 µM
[48]
  GI50: > 100 µM
  TGI: > 100 µM
[49]
  GI50: > 100 µM
  TGI: > 100 µM
[50]
  GI50: > 100 µM
  TGI: > 100 µM
[51]
  GI50: > 100 µM
  TGI: > 100 µM
[52]
  GI50: > 100 µM
  TGI: > 100 µM
[53]
  GI50: > 100 µM
  TGI: > 100 µM
[54]
  GI50: > 100 µM
  TGI: > 100 µM
[55]
  GI50: > 100 µM
  TGI: > 100 µM
